In patent publication US20160281050A1, “METHODS FOR TREATING A CULTURE OF HAEMATOCOCCUS PLUVIALIS FOR CONTAMINATION USING SALT AND HYDROGEN PEROXIDE” (HELIAE DEVELOPMENT LLC, priority 2015, published 2016):

Key:
pure chytrid culture = assay: Chytrid tolerance: pure chytrid culture in well plate, observed under a microscope (Examples 13-14); type: cell-based; settings: 40 ppm
Description: Experiments were performed to determine chytrid tolerance to bleach, salt, Lufenuron (chemical biocide), and Rid Fungus (blend of natural organic herbs) for evaluation as a treatment for chytrids. A pure chytrid culture in a well plate was treated every 24 hours and observed under a microscope to determine the effect. An untreated culture was used as a control for comparison purposes. Qualitative assessments and quantitative estimates were made by visual observation under a microscope.
Several concentrations of salt and Rid Fungus (blend of organic herbs) were further investigated as a chytrid treatment, as in Example 13. A pure chytrid culture in a well plate was treated and visually observed under a microscope to determine the effect. An untreated culture was used as a control for comparison purposes.

chytrids = assay: Haematococcus red cyst cells infected with chytrids treated in well plates (Example 15); type: cell-based
Description: Several concentrations of bleach and Lufenuron were further investigated for their effectiveness as chytrid treatments for Haematococcus pluvialis during culturing. Cultures of Haematococcus pluvialis (Strain 1) red cyst cells infected with chytrids were treated in well plates (0.5 mL volume) with bleach or Lufenuron to evaluate the effect on the Haematococcus cells if bleach or Lufenuron were to be used as a contamination treatment. A first control culture of Haematococcus red cyst cells absent of chytrids and a second control culture of healthy Haematococcus red cyst cells inoculated with chytrids were used as comparisons for the treatments. The cultures were treated with bleach at or less than the tolerance level of Haematococcus: 0.01, 0.02 and 0.03 mL/L of 12.5% stock concentration bleach (calculated concentration 0.00125, 0.0025, and 0.00375 mL/L), or different concentrations of Lufenuron (0.01, 0.1 and 1% of culture volume). The cultures were observed under a microscope during the experiment to determine effectiveness.

[1] = system: chytrid zoospores and sporangia; settings: 1% dose of a solution comprising 50% NaOH; 25, 40, and 50° C
Description: A solution comprising 50% sodium hydroxide (NaOH) was evaluated as a treatment for chytrids that could be applied to empty reactors in order to clean them for subsequent batches. A pure culture of chytrid zoospores and sporangia was treated with a 1% dose of a solution comprising 50% NaOH at temperatures of 25, 40, and 50° C. The cultures were then observed under a microscope for a reduction in the chytrid zoospores or sporangia number, or a reduction in the integrity of the chytrid cells.

[2] = system: Haematococcus pluvialis (Strain 1)

Compound: O=C(NC(=O)c1c(F)cccc1F)Nc1cc(Cl)c(OC(F)(F)C(F)C(F)(F)F)cc1Cl (stereo not drawn) [Lufenuron]
- microscope observation of pure chytrid culture (pure chytrid culture; after 1 hour): swimming zoospores
- microscope observation of pure chytrid culture (pure chytrid culture; after 24 hours): Swimming zoospores
- microscope observation of pure chytrid culture (pure chytrid culture; after 48 hours and 72 hours): heavy bacteria with sporangia and zoospores
- microscope observation of infected red cyst culture (chytrids; 0.01% of culture volume, after 24 and 48 hours): swimming zoospores and positive infection
- microscope observation of infected red cyst culture (chytrids; 0.01% of culture volume, after 72 hours): Some swimming zoospores, Ochromonas (single-celled, motile, golden-brown alga), and active infection
- microscope observation of infected red cyst culture (chytrids; 0.10% of culture volume, after 24 and 48 hours): dead sporangia, some infection, and active zoospores
- microscope observation of infected red cyst culture (chytrids; 0.10% of culture volume, after 72 hours): Some swimming zoospores and active infection
- microscope observation of infected red cyst culture (chytrids; 1.00% of culture volume, after 24 hours): dead sporangia and zoospores attached to cyst cells
- microscope observation of infected red cyst culture (chytrids; 1.00% of culture volume, after 48 hours): Ochromonas, bacteria, dead sporangia, zoospores attached to cyst cells, and few swimming zoospores
- microscope observation of infected red cyst culture (chytrids; 1.00% of culture volume, after 72 hours): Ochromonas, no active infection, and no zoospores

Compound: [Na+].[OH-] [NaOH, sodium hydroxide]
- reduction in chytrid zoospores or sporangia number or integrity [1]: not a reduction in chytrid zoospores or sporangia number or integrity

Compound: bleach
- known tolerance of Haematococcus pluvialis (Strain 1) [2]: 0.00375 mL/L
